Results on 1 molecule are retold here after patent publication US20010055541A1, “Porous material disinfection method” (priority 2000, published 2001).

Assay [1] has as its system Naegleria gruberi. As to conditions: Naegleria gruberi in 1.1 minutes from ozone-demand free phosphate buffer solution; cited from earlier work.
The subject of assay [2] is human immunodeficiency virus (HIV). As to conditions: non-toxic concentration of 4 μg ozone per ml of serum; cited from earlier work.
Assay [3] relates to Poliovirus type I. Particulars: Poliovirus type I in 9 minutes from activated sludge effluent; cited from earlier work.
Assay [4] concerns Candida tropicalis. Particulars: Candida tropicalis in 0.30 minutes from ozone-demand free water; cited from earlier work.
For assay [5], the system named is Escherichia coli. Particulars: Escherichia coli in 19 minutes from raw waste water; cited from earlier work.
Assay [6] concerns Bacillus subtilis v. globigii spores. As to conditions: within 1.5-2 minutes, water purged with 3% ozone by weight; cited from earlier work.
Assay [7] deals with Bacillus stearothermophilus (ATCC 7953). The experiment in a line: Resistance of six organisms to sterilization with ozone gas (Example I). Particulars: six organisms compared, cell density 10^4-10^7, minimum of three runs.

For `O=[O+][O-]` [ozone], the “ozone concentration reported for a 99% reduction” value in assay [1] is 1.2 mg/L; in assay [3] it was 0.2 mg/L; in assay [4], 0.02 mg/L; in assay [5] it was 2.2 mg/L. In addition, the “log reduction in the infectious titer” value in assay [2] is listed as “six-log reduction”. Moreover, the “log reduction of bacterial spores” value in assay [6] is “four-log reduction”. In assay [7], the “resistance of organism to ozone exposure (ability to maintain viability)” value is on record as “most resistant organism”.
